According to the supplement of paper PMC10307832:

Assays:
Test in all cases: relative viability (nuclei count vs DMSO), 5 days (fraction); higher = more cells survive
AZ3146 + Foretinib = compound: CN1CCC(CC1)OC2=CC(=C(C=C2)NC3=NC=C4C(=N3)N(C(=O)N4C)C5CCCC5)OC [AZ3146] + COc1cc2c(Oc3ccc(NC(=O)C4(C(=O)Nc5ccc(F)cc5)CC4)cc3F)ccnc2cc1OCCCN1CCOCC1 [Foretinib] (partner 0.25 µM)
How it was run: (§1)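 Lung cancer cell lines, seeded in 1536-well plates, were treated the following day by pin tool with a single drug or with five library-drug doses (not always all listed) in √10 steps on top of a fixed anchor-drug dose. Cells were fixed and nuclei stained in one step after 5 days, and nuclei were counted. Relative viability is the nuclei count for treated wells divided by that for vehicle wells, reported as medians of duplicate plates.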

GSK-J4 + Pemetrexed = compound: CCOC(=O)CCNc1cc(N2CCc3ccccc3CC2)nc(-c2ccccn2)n1 [GSK-J4] + Nc1nc2[nH]cc(CCc3ccc(C(=O)N[C@@H](CCC(=O)O)C(=O)O)cc3)c2c(=O)[nH]1 [Pemetrexed] (partner 0.2 µM)
How it was run: as §1

AZ3146 + Pemetrexed = compound: CN1CCC(CC1)OC2=CC(=C(C=C2)NC3=NC=C4C(=N3)N(C(=O)N4C)C5CCCC5)OC [AZ3146] + Nc1nc2[nH]cc(CCc3ccc(C(=O)N[C@@H](CCC(=O)O)C(=O)O)cc3)c2c(=O)[nH]1 [Pemetrexed] (partner 0.2 µM)
How it was run: as §1

AZ3146 + Trametinib = compound: CN1CCC(CC1)OC2=CC(=C(C=C2)NC3=NC=C4C(=N3)N(C(=O)N4C)C5CCCC5)OC [AZ3146] + CC(=O)Nc1cccc(-n2c(=O)n(C3CC3)c(=O)c3c(Nc4ccc(I)cc4F)n(C)c(=O)c(C)c32)c1 [Trametinib] (partner 0.02 µM)
How it was run: as §1

Cell Line | relative viability (AZ3146 + Foretinib; first compound 0.08 µM) | relative viability (AZ3146 + Foretinib; first compound 0.253 µM) | relative viability (AZ3146 + Foretinib; first compound 0.8 µM) | relative viability (AZ3146 + Foretinib; first compound 2.53 µM) | relative viability (AZ3146 + Foretinib; first compound 8 µM) | relative viability (GSK-J4 + Pemetrexed; first compound 0.5 µM) | relative viability (GSK-J4 + Pemetrexed; first compound 5 µM) | relative viability (GSK-J4 + Pemetrexed; first compound 15.81 µM) | relative viability (GSK-J4 + Pemetrexed; first compound 50 µM) | relative viability (AZ3146 + Pemetrexed; first compound 0.08 µM) | relative viability (AZ3146 + Pemetrexed; first compound 0.253 µM) | relative viability (AZ3146 + Pemetrexed; first compound 0.8 µM) | relative viability (AZ3146 + Pemetrexed; first compound 2.53 µM) | relative viability (AZ3146 + Pemetrexed; first compound 8 µM) | relative viability (AZ3146 + Trametinib; first compound 0.08 µM) | relative viability (AZ3146 + Trametinib; first compound 0.253 µM) | relative viability (AZ3146 + Trametinib; first compound 0.8 µM) | relative viability (AZ3146 + Trametinib; first compound 2.53 µM) | relative viability (AZ3146 + Trametinib; first compound 8 µM) | relative viability (GSK-J4 + Pemetrexed; first compound 1.581 µM)
ChaGo-K-1 | 0.93 | 0.823 | 0.872 | 0.923 | 0.816 | 0.259 | 0.247 | 0.259 | 0.266 | 0.562 | 0.248 | 0.254 | 0.258 | 0.248 | 0.826 | 0.895 | 0.836 | 0.892 | 0.957 | –
LCLC-97TM1 | 0.936 | 0.96 | 0.879 | 0.942 | 0.806 | 0.15 | 0.198 | 0.148 | 0.181 | 0.142 | 0.184 | 0.233 | 0.192 | 0.163 | 0.268 | 0.2 | 0.157 | 0.184 | 0.223 | 0.153
COR-L 105 | 1.11 | 1.04 | 0.857 | 0.687 | 0.455 | 0.826 | 1.12 | 1.09 | 0.937 | 1.19 | 1.22 | 0.962 | 0.645 | 0.799 | 0.471 | 0.414 | 0.477 | 0.427 | 0.353 | –
NCI-H1666 | 0.964 | 0.994 | 1.02 | 1.05 | 0.839 | 0.864 | 0.765 | 0.882 | 0.791 | 0.771 | 0.825 | 0.83 | 0.901 | 0.788 | 0.848 | 0.875 | 0.851 | 0.887 | 0.761 | 0.665
CAL-12T | 1.08 | 1.12 | 1.04 | 0.98 | 0.788 | 1.2 | 1.4 | 1.27 | 0.946 | 1.1 | 1.15 | 1.29 | 1.33 | 1.13 | 0.46 | 0.304 | 0.321 | 0.313 | 0.314 | 1.15
EPLC-272H | – | 0.784 | 0.629 | 0.732 | 0.721 | 0.36 | 0.319 | 0.295 | 0.3 | 0.366 | 0.369 | 0.37 | 0.341 | 0.396 | 0.312 | 0.281 | 0.272 | 0.268 | 0.247 | 0.294
NCI-H1299 | 1.06 | 1.1 | 1.07 | 1.12 | 0.679 | – | – | – | – | – | – | – | – | – | – | – | – | – | – | –
ABC-1 | 0.98 | 1.01 | 1.29 | 1.1 | 0.709 | – | – | – | – | – | – | – | – | – | – | – | – | – | – | –
NCI-H358 | 0.608 | 0.637 | 0.554 | 0.504 | 0.212 | 0.237 | 0.171 | 0.171 | 0.188 | 0.153 | 0.168 | 0.192 | 0.171 | 0.156 | 0.162 | 0.123 | 0.139 | 0.127 | 0.12 | –
NCI-H1437 | 1.24 | 1.31 | 1.26 | 1.35 | 1.26 | 0.298 | 0.3 | 0.297 | 0.262 | 0.283 | 0.327 | 0.3 | 0.346 | 0.294 | 0.445 | 0.48 | 0.511 | 0.489 | 0.361 | 0.317
EKVX | 0.798 | 0.753 | 0.735 | 0.869 | 0.788 | 0.351 | 0.426 | 0.418 | 0.315 | 0.441 | 0.424 | 0.365 | 0.389 | 0.422 | 0.331 | 0.305 | 0.202 | 0.345 | 0.332 | –
NCI-H3122 | 0.924 | 1.02 | 0.971 | 0.942 | 1.03 | 0.205 | 0.201 | 0.206 | 0.19 | 0.197 | 0.191 | 0.203 | 0.2 | 0.185 | 0.245 | 0.228 | 0.224 | 0.204 | 0.251 | 0.201
EBC-1 | 0.112 | 0.0981 | 0.119 | 0.111 | 0.117 | – | – | – | – | – | – | – | – | – | – | – | – | – | – | –
NCI-H727 | 0.952 | 0.967 | 0.975 | 0.981 | 0.86 | – | – | – | – | – | – | – | – | – | 0.359 | 0.365 | 0.335 | 0.417 | 0.364 | –
Calu-6 | 0.792 | 0.996 | 0.891 | 0.792 | 0.48 | – | – | – | – | – | – | – | – | – | – | – | – | – | – | –
A549 | 1.08 | 0.952 | 0.743 | 0.177 | 0.063 | – | – | – | – | – | – | – | – | – | – | – | – | – | – | –
IA-LM | 1.21 | 1.36 | 1.33 | 1.08 | 0.285 | – | – | – | – | – | – | – | – | – | – | – | – | – | – | –
NCI-H1703 | 0.285 | 0.351 | 0.329 | 0.343 | 0.272 | – | – | – | – | – | – | – | – | – | – | – | – | – | – | –
NCI-H1563 | 0.901 | 1.07 | 0.903 | 0.901 | 0.864 | 0.738 | 0.717 | 0.698 | 0.76 | 0.673 | 0.645 | 0.717 | 0.797 | 0.825 | – | – | – | – | – | 1.26
NCI-H1648 | – | – | – | – | – | 0.618 | 1.02 | – | 0.873 | – | – | 1.02 | 0.801 | 0.62 | – | – | 0.219 | 0.563 | 0.568 | –
